Counter-ions that a name gives are not always drawn. Like-named read-outs stand apart in the source and are kept apart here. Each block holds one compound with its values, some of them ahead of it.
Legend:
[1] = molecular target: Recombinant human PKC-theta (His-tagged 362-706) (Homo sapiens (Human), UniProt Q04759); assay: PKC-theta inhibition assay (HTRF KinEASE kit); type: biochemical; conditions: ATP 6.5 μM; for IC50: binned A to H, read-out: PKC-theta HTRF pIC50 (binned) (converted)
Procedure, shortened: (§1)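 Ten semi-log compound doses were fitted by 4-parameter logistic to HTRF acceptor/donor ratios for IC50. Reactions at 25° C used 6.5 μM ATP and 525 nM STK substrate for 30 min (PKC-theta) or 5.7 μM ATP and 243 nM substrate for 20 min (PKC-delta), after 30 min on-ice enzyme–compound preincubation at 10 ng/ml enzyme.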

[2] = tested on: IL-2 secretion by human effector memory T cells (TEM); assay: Effector memory T cells IL-2 release assay; type: cell-based; conditions: T-cell, 24 h
Procedure, shortened: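 IC50 values come from a 4-parameter fit of HTRF-measured IL-2 against 10 semi-log doses, relative to maximal IL-2 in each experiment. Donor-derived CD4+ TEM cells were bead-stimulated (anti-CD3/CD28) with compound for 24 h at 37° C; cytotoxicity was excluded by viability dye staining.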

[3] = molecular target: Recombinant human PKC-delta (His-tagged 345-676) (Homo sapiens (Human), UniProt Q05655); assay: PKC-delta inhibition assay (HTRF KinEASE kit), PKC-theta/PKC-delta selectivity; type: biochemical; conditions: ratio; for PKC-theta/PKC-delta selectivity: PKC-theta over PKC-delta, HTRF assays; for PKC-theta/PKC-delta selectivity (binned): binned A to G
Recombinant human PKC-delta (His-tagged 345-676), sequence (Q05655 345-676): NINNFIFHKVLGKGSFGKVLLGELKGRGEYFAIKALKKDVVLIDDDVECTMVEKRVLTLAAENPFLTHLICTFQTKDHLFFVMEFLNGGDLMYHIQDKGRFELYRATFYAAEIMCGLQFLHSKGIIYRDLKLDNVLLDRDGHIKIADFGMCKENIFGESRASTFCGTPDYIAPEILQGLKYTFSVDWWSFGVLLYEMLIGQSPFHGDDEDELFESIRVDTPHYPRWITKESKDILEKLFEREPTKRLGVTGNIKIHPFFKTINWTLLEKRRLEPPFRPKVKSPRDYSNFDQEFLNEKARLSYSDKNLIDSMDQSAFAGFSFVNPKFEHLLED
Procedure, shortened: as §1

[4] = human CD4+ TEM cells, CD3/CD28 bead stimulation, binned A to G, read-out: PKC-theta IL2 pIC50 (binned) (converted)
[5] = human CD4+ TEM cells, CD3/CD28 bead stimulation, read-out: PKC-theta IL2 pIC50 (converted)

Recombinant human PKC-theta (His-tagged 362-706), sequence (Q04759 362-706): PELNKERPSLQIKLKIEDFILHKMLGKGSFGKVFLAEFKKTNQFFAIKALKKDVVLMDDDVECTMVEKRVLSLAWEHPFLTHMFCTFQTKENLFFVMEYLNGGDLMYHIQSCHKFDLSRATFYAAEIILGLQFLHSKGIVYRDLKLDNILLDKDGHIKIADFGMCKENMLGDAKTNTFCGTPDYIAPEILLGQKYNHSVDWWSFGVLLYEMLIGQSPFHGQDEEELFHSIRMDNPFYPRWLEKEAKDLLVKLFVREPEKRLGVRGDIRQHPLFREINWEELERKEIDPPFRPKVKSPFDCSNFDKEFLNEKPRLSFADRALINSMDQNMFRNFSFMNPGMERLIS

SMILES: CC1(C)C(=O)Nc2nccc(-c3ccn([C@H]4CC[C@H](N)CC4)n3)c21 [Example 14]
PKC-theta HTRF pIC50 [1]: 8.5
IC50 [1]: 3.16 to 10 nM
IC50 [2, 4]: 31.6 to 100 nM
IC50 [2, 5]: 50.1 nM
PKC-theta/PKC-delta selectivity [3]: 3
PKC-theta/PKC-delta selectivity (binned) [3]: F (F means a ratio of between 1 and 5)

SMILES: CC1(C)C(=O)Nc2nccc(-c3nn([C@@H]4CCNC4)c4ccccc34)c21 [Example 15]
PKC-theta HTRF pIC50 [1]: 8.6
IC50 [1]: 1 to 3.16 nM
IC50 [2, 4]: 31.6 to 100 nM
IC50 [2, 5]: 39.8 nM
PKC-theta/PKC-delta selectivity [3]: 14
PKC-theta/PKC-delta selectivity (binned) [3]: D (D means a ratio of between 10 and 20)

SMILES: CC1(C)C(=O)Nc2nccc(-c3nn([C@H]4CCNC4)c4ccccc34)c21 [Example 16, 3,3-dimethyl-4-[1-[(3S)-pyrrolidin-3-yl]indazol-3-yl]-1H-pyrrolo[2,3-b]pyridin-2-one Dihydrochloride]
PKC-theta HTRF pIC50 [1]: 8.3
IC50 [1]: 3.16 to 10 nM
IC50 ([2]; Homo sapiens, read-out: PKC-theta IL2 pIC50 (binned) (converted)): 31.6 to 100 nM
IC50 ([2]; Homo sapiens, read-out: PKC-theta IL2 pIC50 (converted)): 63.1 nM
PKC-theta/PKC-delta selectivity [3]: 18
PKC-theta/PKC-delta selectivity (binned) [3]: D (D means a ratio of between 10 and 20)

SMILES: CC1(O)C(=O)Nc2nccc(-c3cn([C@H]4CCNC4)c4ccccc34)c21 (stereo partly drawn) [Example 18]
PKC-theta HTRF pIC50 [1]: 7.9
IC50 [1]: 10 to 31.6 nM
IC50 [2, 4]: 316 to 1000 nM
IC50 [2, 5]: 316 nM
PKC-theta/PKC-delta selectivity [3]: 11
PKC-theta/PKC-delta selectivity (binned) [3]: D (D means a ratio of between 10 and 20)

SMILES: CC1(C)C(=O)Nc2nccc(-c3nn([C@@H]4CCCNC4)c4ccccc34)c21 [Example 19]
PKC-theta HTRF pIC50 [1]: 8.4
IC50 [1]: 3.16 to 10 nM
IC50 [2, 4]: 31.6 to 100 nM
IC50 [2, 5]: 50.1 nM
PKC-theta/PKC-delta selectivity [3]: 9
PKC-theta/PKC-delta selectivity (binned) [3]: E (E means a ratio of between 5 and 10)

SMILES: CC1(C)C(=O)Nc2nccc(-c3nn([C@H]4CCCNC4)c4ccccc34)c21 [Example 20]
PKC-theta HTRF pIC50 [1]: 7.8
IC50 [1]: 10 to 31.6 nM
IC50 [2, 4]: 100 to 316 nM
IC50 [2, 5]: 200 nM
PKC-theta/PKC-delta selectivity [3]: 13
PKC-theta/PKC-delta selectivity (binned) [3]: D (D means a ratio of between 10 and 20)

SMILES: CC1(C)C(=O)Nc2nccc(-c3cn(C4(CC#N)CCC4)c4ccccc34)c21 [Example 21, 2-[1-[3-(3,3-dimethyl-2-oxo-1H-pyrrolo[2,3-b]pyridin-4-yl)indol-1-yl]cyclobutyl]acetonitrile]
PKC-theta HTRF pIC50 [1]: 7.3
IC50 [1]: 31.6 to 100 nM
IC50 [2, 4]: > 1000 nM
IC50 [2, 5]: 1000 nM
PKC-theta/PKC-delta selectivity [3]: 9
PKC-theta/PKC-delta selectivity (binned) [3]: E (E means a ratio of between 5 and 10)

SMILES: CC1(C)C(=O)Nc2nccc(-c3nn(C4(CC#N)CCC4)c4ccccc34)c21 [Example 22]
PKC-theta HTRF pIC50 [1]: 8.0
IC50 [1]: 3.16 to 10 nM
IC50 [2, 4]: 316 to 1000 nM
IC50 [2, 5]: 316 nM
PKC-theta/PKC-delta selectivity [3]: 15
PKC-theta/PKC-delta selectivity (binned) [3]: D (D means a ratio of between 10 and 20)

SMILES: CC1(C)C(=O)Nc2nccc(-c3nn(C4(CO)CCNC4)c4ccccc34)c21 (stereo not drawn) [Example 23]
PKC-theta HTRF pIC50 [1]: 9.3
IC50 [1]: ≤ 1 nM
IC50 [2, 4]: 10 to 31.6 nM
IC50 [2, 5]: 31.6 nM
PKC-theta/PKC-delta selectivity [3]: 11
PKC-theta/PKC-delta selectivity (binned) [3]: D (D means a ratio of between 10 and 20)

SMILES: CC1(O)C(=O)Nc2nccc(-c3cn(C4(CC#N)CCC4)c4ccccc34)c21 (stereo not drawn) [Example 24]
PKC-theta HTRF pIC50 [1]: 8.4
IC50 [1]: 3.16 to 10 nM
IC50 [2, 4]: 31.6 to 100 nM
IC50 [2, 5]: 63.1 nM
PKC-theta/PKC-delta selectivity [3]: 9
PKC-theta/PKC-delta selectivity (binned) [3]: E (E means a ratio of between 5 and 10)

SMILES: CC1(O)C(=O)Nc2nccc(-c3nn(C4(CC#N)CCC4)c4ccccc34)c21 (stereo not drawn) [Example 25, 2-[1-[3-(3-hydroxy-3-methyl-2-oxo-1H-pyrrolo[2,3-b]pyridin-4-yl)indazol-1-yl]cyclobutyl]acetonitrile]
PKC-theta HTRF pIC50 [1]: 9.3
IC50 [1]: ≤ 1 nM
IC50 [2, 4]: 10 to 31.6 nM
IC50 [2, 5]: 20 nM
PKC-theta/PKC-delta selectivity [3]: 6
PKC-theta/PKC-delta selectivity (binned) [3]: E (E means a ratio of between 5 and 10)

SMILES: CC1(O)C(=O)Nc2nccc(-c3nn(C4CCNCC4)c4ccccc34)c21 (stereo not drawn) [Example 26]
PKC-theta HTRF pIC50 [1]: 8.5
IC50 [1]: 3.16 to 10 nM
IC50 [2, 4]: 31.6 to 100 nM
IC50 [2, 5]: 79.4 nM
PKC-theta/PKC-delta selectivity [3]: 11
PKC-theta/PKC-delta selectivity (binned) [3]: D (D means a ratio of between 10 and 20)

SMILES: CC1(C)C(=O)Nc2nccc(-c3nn(CC4CCNCC4)c4ccccc34)c21 [Example 30]
PKC-theta HTRF pIC50 [1]: 8.9
IC50 [1]: 1 to 3.16 nM
IC50 [2, 4]: 31.6 to 100 nM
IC50 [2, 5]: 50.1 nM
PKC-theta/PKC-delta selectivity [3]: 14
PKC-theta/PKC-delta selectivity (binned) [3]: D (D means a ratio of between 10 and 20)

SMILES: CC1(C)C(=O)Nc2nccc(-c3nn(C4CCNCC4)c4c(F)cccc34)c21 [Example 32]
PKC-theta HTRF pIC50 [1]: 8.1
IC50 [1]: 3.16 to 10 nM
IC50 [2, 4]: 100 to 316 nM
IC50 [2, 5]: 100 nM
PKC-theta/PKC-delta selectivity [3]: 13
PKC-theta/PKC-delta selectivity (binned) [3]: D (D means a ratio of between 10 and 20)

SMILES: CC1(O)C(=O)Nc2nccc(-c3nn([C@@H]4CCNC[C@@H]4F)c4ccccc34)c21 (stereo partly drawn) [Example 34]
PKC-theta HTRF pIC50 [1]: 8.8
IC50 [1]: 1 to 3.16 nM
IC50 [2, 4]: 31.6 to 100 nM
IC50 [2, 5]: 39.8 nM
PKC-theta/PKC-delta selectivity [3]: 12
PKC-theta/PKC-delta selectivity (binned) [3]: D (D means a ratio of between 10 and 20)

Results, then the compound that gave them:

PKC-theta HTRF pIC50 [1]: 8.5
IC50 [1]: 3.16 to 10 nM
IC50 [2, 4]: 31.6 to 100 nM
IC50 [2, 5]: 100 nM
PKC-theta/PKC-delta selectivity [3]: 11
PKC-theta/PKC-delta selectivity (binned) [3]: D (D means a ratio of between 10 and 20)
SMILES: CC1(O)C(=O)Nc2nccc(-c3nn([C@H]4CCNC[C@@H]4F)c4ccccc34)c21 (stereo partly drawn) [Example 35]

PKC-theta HTRF pIC50 [1]: 8.6
IC50 [1]: 1 to 3.16 nM
IC50 [2, 4]: 10 to 31.6 nM
IC50 [2, 5]: 25.1 nM
PKC-theta/PKC-delta selectivity [3]: 19
PKC-theta/PKC-delta selectivity (binned) [3]: D (D means a ratio of between 10 and 20)
SMILES: CC1(C)C(=O)Nc2nccc(-c3nn([C@@H]4CCNC[C@@H]4F)c4ccccc34)c21 [Example 37]

PKC-theta HTRF pIC50 [1]: 8.9
IC50 [1]: 1 to 3.16 nM
IC50 [2, 4]: 10 to 31.6 nM
IC50 [2, 5]: 20 nM
PKC-theta/PKC-delta selectivity [3]: 16
PKC-theta/PKC-delta selectivity (binned) [3]: D (D means a ratio of between 10 and 20)
SMILES: CC1(C)C(=O)Nc2nccc(-c3nn(CC4(F)CCNCC4)c4ccccc34)c21 [Example 38]

PKC-theta HTRF pIC50 [1]: 9.7
IC50 [1]: ≤ 1 nM
IC50 [2, 4]: 3.16 to 10 nM
IC50 [2, 5]: 10 nM
PKC-theta/PKC-delta selectivity [3]: 10
PKC-theta/PKC-delta selectivity (binned) [3]: E (E means a ratio of between 5 and 10)
SMILES: CC1(O)C(=O)Nc2nccc(-c3nn([C@@H]4CC[C@@H](N)[C@H](F)C4)c4ccccc34)c21 (stereo partly drawn) [Example 39]

PKC-theta HTRF pIC50 [1]: 9.4
IC50 [1]: ≤ 1 nM
IC50 [2, 4]: 10 to 31.6 nM
IC50 [2, 5]: 15.8 nM
PKC-theta/PKC-delta selectivity [3]: 14
PKC-theta/PKC-delta selectivity (binned) [3]: D (D means a ratio of between 10 and 20)
SMILES: CC1(C)C(=O)Nc2nccc(-c3nn([C@H]4CC[C@H](N)CC4)c4ccccc34)c21 [Example 41]

PKC-theta HTRF pIC50 [1]: 7.5
IC50 [1]: 31.6 to 100 nM
IC50 [2, 4]: 100 to 316 nM
IC50 [2, 5]: 251 nM
PKC-theta/PKC-delta selectivity [3]: 14
PKC-theta/PKC-delta selectivity (binned) [3]: D (D means a ratio of between 10 and 20)
SMILES: CC1(C)C(=O)Nc2nccc(-c3nn(CC4(F)CCCNC4)c4ccccc34)c21 (stereo not drawn) [Example 44]

From patent publication US20240239794A1, “PKC-Theta Modulators” (Exscientia AI Limited, priority 2021, published 2024)
